For one compound, EC50 results are on record in paper PMC7191645 (Molecular Metabolism, 2020).

The target in the experiment is β3-adrenoceptor (β3-AR) (Mus musculus, UniProt P25962). The experiment is described as follows: Epac1-camps FRET cAMP concentration-response in mature murine brown adipocytes. The format is cell-based.

SMILES strings stand for the structures.

In general, EC50 refers to the concentration that produces a half-maximal response.

β3-adrenoceptor (β3-AR), sequence (P25962 whole entry): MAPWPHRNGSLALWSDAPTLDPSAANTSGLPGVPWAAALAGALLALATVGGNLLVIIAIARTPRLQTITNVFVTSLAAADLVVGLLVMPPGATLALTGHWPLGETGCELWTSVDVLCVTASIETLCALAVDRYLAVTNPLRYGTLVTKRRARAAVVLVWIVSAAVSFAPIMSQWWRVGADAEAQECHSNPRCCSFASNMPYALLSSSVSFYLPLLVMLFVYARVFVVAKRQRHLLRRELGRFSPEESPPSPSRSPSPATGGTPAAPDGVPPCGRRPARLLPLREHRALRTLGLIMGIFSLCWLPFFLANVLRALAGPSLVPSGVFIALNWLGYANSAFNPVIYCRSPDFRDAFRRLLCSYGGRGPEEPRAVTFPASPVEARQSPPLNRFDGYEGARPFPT

Take `C[C@H](Cc1ccc2c(c1)OC(C(=O)O)(C(=O)O)O2)NC[C@H](O)c1cccc(Cl)c1` [CL, CL 316,243]: the EC50 is 7.8 µM.
